One test deals with hESC-derived NE neurons. As to the kind of experiment: NE content in supernatant of NE neuron culture by ELISA. Format: cell-based, human. The procedure: gRNA was designed according to Benchling. Donor plasmid was generated by NEBuilder® HiFi DNA Assembly Master Mix (NEB, E2621S). Briefly, hPSCs were digested by TrypLE Express. Gene Pulser Xcell (Bio-Rad) was used for CRISPR/Cas9 delivery. Two-million cells were electroporated with 15 μg of sgRNA plasmid (pLenti-CRISPR) with 30 μg donor plasmid. Cells were plated at ˜150,000 cells/well of 6-well plate. Starting 24 hours after electroporation, 0.5 μg/ml puromycin were added to the culture medium. After 3 days of puromycin selection, hPSCs were switched to their normal culture medium and fed every other day until approximately 1-2 weeks after electroporation when distinct colonies were established. • Cell transplantation: Small aggregates of NE neural progenitors (day 10-day 12) were collected and suspended in artificial cerebral spinal fluid (aCSF) containing Rock inhibitor (0.5 μM), at a concentration of 100,000 cells/μl. 1 μl of cells were slowly injected into the left cortex (AP=+0.0 mm, ML=+1.8 mm, DV=−1.7 mm, from skull) of adult SCID mice (8-12 weeks) that were anesthetized with 1%-2% isoflurane mixed in oxygen. • Immunocytochemistry and flow cytometry: Immunocytochemistry was performed as described previously. See Huang et al., 2016, Sci Rep, 6:32600, doi:10.1038/srep32600. In brief, cells on coverslips were fixed in 4% neutral-buffered paraformaldehyde (PFA) for 10 minutes (min) at room temperature. Following rinsing with PBS, these cells were incubated in 0.2% Triton X-100 (in phosphate buffered saline (PBS)) for 10 min followed by 10% donkey serum (in PBS) at room temperature for 1 hour (h). The cells were then incubated with primary antibodies diluted in 5% donkey serum in 0.1% Triton X100 (in PBS) at 4° C. overnight, followed by fluorescently conjugated secondary antibodies at room temperature for 30 min. The nuclei were stained with Hoechst. Images were collected with a Nikon A1 laser-scanning confocal microscope. Flow cytometry was performed using Transcription Factor Buffer Set which is designed for transcription factor staining following manufacturer's instruction. Briefly, single cells were prepared using TrypLE Express Enzyme and fixed in the fixation buffer provided by the kit at 2-8° C. for 45 min. After 3 washings with the permeable buffer, primary antibodies were added to cells for 45 min at 2-8° C. in a light-tight box. Cells were washed three times before fluorescently conjugated secondary antibodies. Second antibodies were incubated with cells for 45 minutes at 2-8° C. in a light-tight box and followed by washing three times. After the last wash, cells were suspended in washing buffer and analyzed by flow cytometry (BD LSR or BD LSRII). […]

Test [1] concerns GRABNE1m sensor-expressing NE neurons. The test can be described thus: Fluorescence imaging of GRABNE1m sensor cells. Format: cell-based, human. As to conditions: norepinephrine reuptake inhibitor treatment.
In test [2] the test system is human ESC-derived NE neurons. The test can be described thus: Whole-cell patch clamp recording of spontaneous action potential firing. Particulars: 1 mM; reversed upon washing away. Format: cell-based. The protocol:
gRNA was designed according to Benchling. Donor plasmid was generated by NEBuilder® HiFi DNA Assembly Master Mix (NEB, E2621S). Briefly, hPSCs were digested by TrypLE Express. Gene Pulser Xcell (Bio-Rad) was used for CRISPR/Cas9 delivery. Two-million cells were electroporated with 15 μg of sgRNA plasmid (pLenti-CRISPR) with 30 μg donor plasmid. Cells were plated at ˜150,000 cells/well of 6-well plate. Starting 24 hours after electroporation, 0.5 μg/ml puromycin were added to the culture medium. After 3 days of puromycin selection, hPSCs were switched to their normal culture medium and fed every other day until approximately 1-2 weeks after electroporation when distinct colonies were established. • Cell transplantation: Small aggregates of NE neural progenitors (day 10-day 12) were collected and suspended in artificial cerebral spinal fluid (aCSF) containing Rock inhibitor (0.5 μM), at a concentration of 100,000 cells/μl. 1 μl of cells were slowly injected into the left cortex (AP=+0.0 mm, ML=+1.8 mm, DV=−1.7 mm, from skull) of adult SCID mice (8-12 weeks) that were anesthetized with 1%-2% isoflurane mixed in oxygen. • Immunocytochemistry and flow cytometry: Immunocytochemistry was performed as described previously. […] After the last wash, cells were suspended in washing buffer and analyzed by flow cytometry (BD LSR or BD LSRII). […]

Test [3] relates to human NE neuron progenitor cells. Particulars: in neural differentiation medium. The text has this:
On day 5, change the medium without SB431542. […] Cells were feed daily.

From patent US12297453B2, “Generation of norepinephrine neurons from human stem cells” (Wisconsin Alumni Research Foundation, priority 2020, dated 2025) come the findings set out here.

In the case of `CNCCCC12CCC(c3ccccc31)c1ccccc12` [Maprotiline], in the test on hESC-derived NE neurons, the “NE content in the supernatants” value is reported as “increased the NE content”. In addition, the “GRABNE1m sensor intensity (extracellular norepinephrine)” value (“GRABNE1m sensor intensity” below) in test [1] is “increase”.
As to `Clc1cccc(Cl)c1N=C1NCCN1` [Clonidine], the sAP firing rate entry in test [2] is listed as “reduced the sAP firing rating significantly”.
As for `Nc1ncnc2c1ncn2[C@@H]1O[C@@H]2COP(=O)(O)O[C@H]2[C@H]1O` [cAMP], in test [3], the “yield of human TH+/DBH+ NE neurons” value is on record as “boost yield”.
Consider `CCOc1ccccc1OC(c1ccccc1)C1CNCCO1` (stereo not shown) [Reboxetine], for which the “NE content in the supernatants” value in the test with hESC-derived NE neurons is “increased the NE content”. Moreover, the “GRABNE1m sensor intensity” value in test [1] is “increase”.
For `CNCC[C@@H](Oc1ccccc1C)c1ccccc1` [Tomoxetine] the same measures were “increased the NE content” and “increase”.
With `CNCCC(Oc1ccccc1OC)c1ccccc1` (stereo not shown) [Nisoxetine], the “NE content in the supernatants” value in the test with hESC-derived NE neurons was “increased the NE content”. In addition, in test [1], the “GRABNE1m sensor intensity” value is given as “increase”.
